Test results published in publication PMC4336642 (Journal of neuroimmune pharmacology : the official journal …, 2015).
Converted amounts (≈) assume the structure as drawn.

Experiments:
A172 cells = experiment: MTT cytotoxicity assay, astrocytes model; type: cell-based; details: Homo sapiens, A 172, 24 h, read-out: IC50, Astrocytes
bEnd.3 cells = experiment: MTT cytotoxicity assay, BBB model; type: cell-based, murine; details: Mus musculus, BEND3, 24 h, read-out: IC50, BBB
SH-SY5Y cells = experiment: MTT cytotoxicity assay, neurons model; type: cell-based; details: Homo sapiens, 24 h, read-out: IC50, Neurons
BV-2 cells = experiment: MTT cytotoxicity assay, microglia model; type: cell-based, murine; details: Mus musculus, BV-2, 24 h, read-out: IC50, Microglia

Cc1cn([C@H]2C[C@H](N=[N+]=[N-])[C@@H](CO)O2)c(=O)[nH]c1=O [Z, 3’-azido-3’-deoxythymidine]
IC50 (A172 cells): > 1000 µg/mL | IC50 (bEnd.3 cells): > 1000 µg/mL | IC50 (SH-SY5Y cells): > 1000 µg/mL | IC50 (BV-2 cells): 800 µg/mL (≈ 2.99 mM) | reduction in the mtDNA/nuDNA ratio / mitochondrial toxicity (HepG2 cells): two-fold reduction
